Converted amounts (≈) assume the structure as drawn.
Tests used:
[1] = Kinetic solubility at 37° C. in water and three biorelevant media; assay type: physicochemical
Procedure: Example 7: Kinetic Solubility. Kinetic solubility measurements were conducted on Compound 1 (a free acid) and Form A Tris salt of Compound 1 at 37° C. in water and three biorelevant media: synthetic gastric fluid; fed synthetic small intestinal fluid; and fasting synthetic small intestinal fluid.

[2] = Approximate (thermodynamic) solubility in solvents at room temperature; assay type: physicochemical; conditions: for solubility: organic solvent or mixture, thermodynamic from solid
[3] = Fasting Synthetic Small Intestinal Fluid, 37° C., 1 Hr
[4] = Fasting Synthetic Small Intestinal Fluid, 37° C., 4 Hrs
[5] = Fasting Synthetic Small Intestinal Fluid, 37° C., 24 Hrs
[6] = Fed Synthetic Small Intestinal Fluid, 37° C., 1 Hr
[7] = Fed Synthetic Small Intestinal Fluid, 37° C., 4 Hrs
[8] = Fed Synthetic Small Intestinal Fluid, 37° C., 24 Hrs
[9] = Synthetic Gastric Fluid, 37° C., 1 Hr
[10] = Synthetic Gastric Fluid, 37° C., 4 Hrs
[11] = Synthetic Gastric Fluid, 37° C., 24 Hrs

Structure (SMILES)	Observed kinetic aqueous solubility S [1, 3]	pH [1, 3]	Observed kinetic aqueous solubility S [1, 4]	pH [1, 4]	Observed kinetic aqueous solubility S [1, 5]	pH [1, 5]	Observed kinetic aqueous solubility S [1, 6]	pH [1, 6]	Observed kinetic aqueous solubility S [1, 7]	pH [1, 7]	pH [1, 8]	pH [1, 9]	pH [1, 10]	pH [1, 11]	Observed kinetic aqueous solubility S ([1]; Water, 37° C., 1 Hr)	pH ([1]; Water, 37° C., 1 Hr)	Observed kinetic aqueous solubility S ([1]; Water, 37° C., 4 Hrs)	pH ([1]; Water, 37° C., 4 Hrs)	Observed kinetic aqueous solubility S ([1]; Water, 37° C., 24 Hrs)	pH ([1]; Water, 37° C., 24 Hrs)	also measured
CC(/C=C/[C@@H]1C[C@]1(C)c1ccc2c(c1)C(C)(C)CCC2(C)C)=C\C(=O)O [Tris Form A]	740 µg/mL	6.93	830 µg/mL	7.83	860 µg/mL	9.37	2540 µg/mL	5.91	410 µg/mL	6.84	7.33	1.76	1.96	2.12	290 µg/mL	2.68	170 µg/mL	3.21	140 µg/mL	9.3	solubility kinetic at 24 h ([1]; fed synthetic small intestinal fluid, 37 °C, fessif, thermodynamic from solid, Fed Synthetic Small Intestinal Fluid, 37° C., 24 Hrs, read-out: Observed kinetic aqueous solubility S): 340 µg/mL (≈ 0.964 mM); kinetic aqueous solubility compared to Compound 1 ([1]; relative to free acid, see Table 1): approximately an order of magnitude, or more; kinetic solubility in synthetic gastric fluid (in words) ([1]; synthetic gastric fluid): poor or undetectable; Approximate Solubility ([2]; 2-Butanol, listed as TRIS salt Form A): >15000 µg/mL; Approximate Solubility ([2]; Ethanol, listed as TRIS salt Form A): >40000 µg/mL; Approximate Solubility ([2]; Isopropanol, listed as TRIS salt Form A): 8830 to 10600 µg/mL; Approximate Solubility ([2]; Methanol, listed as TRIS salt Form A): >88000 µg/mL; Approximate Solubility ([2]; Water, listed as TRIS salt Form A): 290 µg/mL
CC(/C=C/[C@@H]1C[C@]1(C)c1ccc2c(c1)C(C)(C)CCC2(C)C)=C\C(=O)O [Compound 1, (2E,4E)-3-methyl-5-((1 S,2S)-2-methyl-2-(5,5,8,8-tetramethyl-5,6,7,8-tetrahydronaphthalen-2-yl)cyclopropyl)penta-2,4-dienoic acid]	50 µg/mL	6.48	60 µg/mL	6.88	40 µg/mL	7.50	100 µg/mL	5.09	100 µg/mL	5.17	5.21	1.67	1.78	1.92	30 µg/mL	7.78	30 µg/mL	7.83	10 µg/mL	8.33	Observed kinetic aqueous solubility S [1, 8]: 440 µg/mL; kinetic solubility in synthetic gastric fluid (in words) ([1]; synthetic gastric fluid): poor or undetectable; solubility kinetic at 4 h ([1]; synthetic gastric fluid, 37 °C, simulated gastric fluid, thermodynamic from solid, Synthetic Gastric Fluid, 37° C., 4 Hrs, ND = No Detectable signal by HPLC, read-out: Observed kinetic aqueous solubility S): 20 µg/mL (≈ 0.0567 mM); Approximate Solubility ([2]; 2-Butanol, listed as Compound 1 (Free Acid)): 108900 to 140000 µg/mL; Approximate Solubility ([2]; Isopropanol, listed as Compound 1 (Free Acid)): 71800 to 87800 µg/mL; Approximate Solubility ([2]; Water, listed as Compound 1 (Free Acid)): 30 µg/mL; solubility ([2]; ethanol): 74900 to 91500 µg/mL (≈ 212 to 260 mM); solubility ([2]; methanol): 57400 to 73100 µg/mL (≈ 163 to 207 mM)

From patent US12325685B2, “RXR agonist salt form, polymorphs thereof, and uses thereof” (Io Therapeutics, Inc., priority 2022, dated 2025)
